The values that follow come from PubChem BioAssay (NCI).

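Exposure lasted 48 hours, with cells grown in 96-well plates and compounds tested at five concentrations. TGI denotes the concentration required for complete inhibition of growth.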

The term TGI denotes the concentration giving total growth inhibition. A low value points to more potent growth arrest.

The first experiment relates to NCI-H226 lung. Briefly: DTP human tumour cell line panel, 48 h.
`COC(=O)C(/C(=N/NC(N)=O)C(=O)Nc1ccc(C)cc1)c1nc2ccc([N+](=O)[O-])cc2[nH]c1=O` (stereo not drawn) yielded a TGI of more than 100 µM.

The test system of the next experiment is NCI-H23 lung. Briefly: DTP human tumour cell line panel, 48 h.
For `CC1(O)CC(C(F)(F)F)(C(F)(F)F)OC1=O` (stereo not drawn), the total growth inhibition concentration (TGI) is more than 10 µM.
For the compound `CC1=C2C(=O)NN=C2CCN1c1ccc(Br)cc1`, the total growth inhibition concentration (TGI) is more than 100 µM.
The same measure, in the same setting: next, `O=C(NNC(=S)Nc1ccc(Cl)cc1)c1cc(-c2ccccc2)nc2ccccc12`: 17.2 µM.

A further experiment deals with NCI-H460 lung. Briefly: DTP human tumour cell line panel, 48 h.
With `CC1(O)CC(C(F)(F)F)(C(F)(F)F)OC1=O` (stereo not drawn), the TGI was more than 10 µM.
As for `CC1=C2C(=O)NN=C2CCN1c1ccc(Br)cc1`, the TGI is more than 100 µM.
`O=C(NNC(=S)Nc1ccc(Cl)cc1)c1cc(-c2ccccc2)nc2ccccc12` had a TGI of 25.6 µM. This counts as double-digit micromolar.
On to `COC(=O)C(/C(=N/NC(N)=O)C(=O)Nc1ccc(C)cc1)c1nc2ccc([N+](=O)[O-])cc2[nH]c1=O` (stereo not drawn), for which the TGI is more than 100 µM.

Another experiment deals with NCI-H522 lung. As to the kind of experiment: DTP human tumour cell line panel, 48 h.
In turn, `CC1(O)CC(C(F)(F)F)(C(F)(F)F)OC1=O` (stereo not drawn) showed a TGI of more than 10 µM.
Consider `CC1=C2C(=O)NN=C2CCN1c1ccc(Br)cc1`, for which the concentration for total growth inhibition (TGI) is more than 100 µM.
In turn, `O=C(NNC(=S)Nc1ccc(Cl)cc1)c1cc(-c2ccccc2)nc2ccccc12` had a concentration for total growth inhibition (TGI) of 23.2 µM.
The compound `COC(=O)C(/C(=N/NC(N)=O)C(=O)Nc1ccc(C)cc1)c1nc2ccc([N+](=O)[O-])cc2[nH]c1=O` (stereo not drawn) gave a total growth inhibition concentration (TGI) of more than 100 µM.

For the next experiment, the system named is NCI/ADR-RES ovarian. As to the kind of experiment: DTP human tumour cell line panel, 48 h.
`CC1(O)CC(C(F)(F)F)(C(F)(F)F)OC1=O` (stereo not drawn) showed a TGI of more than 10 µM.
In the case of `CC1=C2C(=O)NN=C2CCN1c1ccc(Br)cc1`, the TGI is more than 100 µM.
Take `O=C(NNC(=S)Nc1ccc(Cl)cc1)c1cc(-c2ccccc2)nc2ccccc12`: the concentration for total growth inhibition (TGI) came to 30.7 µM.
Compound `COC(=O)C(/C(=N/NC(N)=O)C(=O)Nc1ccc(C)cc1)c1nc2ccc([N+](=O)[O-])cc2[nH]c1=O` (stereo not drawn) showed a concentration for total growth inhibition (TGI) of more than 100 µM.

For a further experiment, the system named is OVCAR-3 ovarian. As to the kind of experiment: DTP human tumour cell line panel, 48 h.
`CC1(O)CC(C(F)(F)F)(C(F)(F)F)OC1=O` (stereo not drawn): the concentration for total growth inhibition (TGI) was more than 10 µM.
As for `CC1=C2C(=O)NN=C2CCN1c1ccc(Br)cc1`, the total growth inhibition concentration (TGI) is more than 100 µM.
`O=C(NNC(=S)Nc1ccc(Cl)cc1)c1cc(-c2ccccc2)nc2ccccc12` showed a total growth inhibition concentration (TGI) of 8.91 µM.
In turn, `COC(=O)C(/C(=N/NC(N)=O)C(=O)Nc1ccc(C)cc1)c1nc2ccc([N+](=O)[O-])cc2[nH]c1=O` (stereo not drawn) registered a total growth inhibition concentration (TGI) of more than 100 µM.

A further experiment concerns OVCAR-4 ovarian. Briefly: DTP human tumour cell line panel, 48 h.
With `CC1(O)CC(C(F)(F)F)(C(F)(F)F)OC1=O` (stereo not drawn), the concentration for total growth inhibition (TGI) is more than 10 µM.
Turning to `CC1=C2C(=O)NN=C2CCN1c1ccc(Br)cc1`, the concentration for total growth inhibition (TGI) is more than 100 µM.
`O=C(NNC(=S)Nc1ccc(Cl)cc1)c1cc(-c2ccccc2)nc2ccccc12` showed a TGI of 24.3 µM.
Still for that read-out and setting: the same measure for `COC(=O)C(/C(=N/NC(N)=O)C(=O)Nc1ccc(C)cc1)c1nc2ccc([N+](=O)[O-])cc2[nH]c1=O` (stereo not drawn): more than 100 µM.

The next experiment deals with OVCAR-5 ovarian. As to the kind of experiment: DTP human tumour cell line panel, 48 h.
Compound `CC1(O)CC(C(F)(F)F)(C(F)(F)F)OC1=O` (stereo not drawn) displayed a total growth inhibition concentration (TGI) of more than 10 µM.
For the compound `CC1=C2C(=O)NN=C2CCN1c1ccc(Br)cc1`, the total growth inhibition concentration (TGI) was more than 100 µM.
In turn, `O=C(NNC(=S)Nc1ccc(Cl)cc1)c1cc(-c2ccccc2)nc2ccccc12` yielded a total growth inhibition concentration (TGI) of 24.4 µM.
`COC(=O)C(/C(=N/NC(N)=O)C(=O)Nc1ccc(C)cc1)c1nc2ccc([N+](=O)[O-])cc2[nH]c1=O` (stereo not drawn) had a concentration for total growth inhibition (TGI) of more than 100 µM.

The next experiment concerns OVCAR-8 ovarian. As to the kind of experiment: DTP human tumour cell line panel, 48 h.
Regarding `CC1(O)CC(C(F)(F)F)(C(F)(F)F)OC1=O` (stereo not drawn), the TGI was more than 10 µM.
In turn, `CC1=C2C(=O)NN=C2CCN1c1ccc(Br)cc1` showed a concentration for total growth inhibition (TGI) of more than 100 µM.
The compound `O=C(NNC(=S)Nc1ccc(Cl)cc1)c1cc(-c2ccccc2)nc2ccccc12` registered a TGI of 29.1 µM.
The same measure, in the same setting: the same measure for `COC(=O)C(/C(=N/NC(N)=O)C(=O)Nc1ccc(C)cc1)c1nc2ccc([N+](=O)[O-])cc2[nH]c1=O` (stereo not drawn): more than 100 µM.

The next experiment relates to PC-3 prostate. As to the kind of experiment: DTP human tumour cell line panel, 48 h.
For the compound `CC1(O)CC(C(F)(F)F)(C(F)(F)F)OC1=O` (stereo not drawn), the TGI is more than 10 µM.
Regarding `CC1=C2C(=O)NN=C2CCN1c1ccc(Br)cc1`, the TGI is more than 100 µM.
In turn, `O=C(NNC(=S)Nc1ccc(Cl)cc1)c1cc(-c2ccccc2)nc2ccccc12` returned a TGI of 15.1 µM.
On to `COC(=O)C(/C(=N/NC(N)=O)C(=O)Nc1ccc(C)cc1)c1nc2ccc([N+](=O)[O-])cc2[nH]c1=O` (stereo not drawn), for which the concentration for total growth inhibition (TGI) was more than 100 µM.

For a further experiment, the system named is RPMI-8226 leukemia. As to the kind of experiment: DTP human tumour cell line panel, 48 h.
`CC1(O)CC(C(F)(F)F)(C(F)(F)F)OC1=O` (stereo not drawn): the TGI was more than 10 µM.
For `O=C(NNC(=S)Nc1ccc(Cl)cc1)c1cc(-c2ccccc2)nc2ccccc12`, the concentration for total growth inhibition (TGI) was found to be 48 µM.
The compound `COC(=O)C(/C(=N/NC(N)=O)C(=O)Nc1ccc(C)cc1)c1nc2ccc([N+](=O)[O-])cc2[nH]c1=O` (stereo not drawn) registered a TGI of more than 100 µM.

The test system of a further experiment is RXF 393 renal. Briefly: DTP human tumour cell line panel, 48 h.
Turning to `O=C(NNC(=S)Nc1ccc(Cl)cc1)c1cc(-c2ccccc2)nc2ccccc12`, the TGI was 21.9 µM. This lies in the double-digit micromolar range.
Same read-out and setting: the same measure for `COC(=O)C(/C(=N/NC(N)=O)C(=O)Nc1ccc(C)cc1)c1nc2ccc([N+](=O)[O-])cc2[nH]c1=O` (stereo not drawn): more than 100 µM.

The next experiment relates to SF-268 CNS. As to the kind of experiment: DTP human tumour cell line panel, 48 h.
`CC1(O)CC(C(F)(F)F)(C(F)(F)F)OC1=O` (stereo not drawn): the concentration for total growth inhibition (TGI) is more than 10 µM.
In turn, `CC1=C2C(=O)NN=C2CCN1c1ccc(Br)cc1` yielded a TGI of more than 100 µM.
For the compound `O=C(NNC(=S)Nc1ccc(Cl)cc1)c1cc(-c2ccccc2)nc2ccccc12`, the total growth inhibition concentration (TGI) stood at 29.6 µM.
`COC(=O)C(/C(=N/NC(N)=O)C(=O)Nc1ccc(C)cc1)c1nc2ccc([N+](=O)[O-])cc2[nH]c1=O` (stereo not drawn) showed a total growth inhibition concentration (TGI) of more than 100 µM.

Another experiment has as its system SF-295 CNS. As to the kind of experiment: DTP human tumour cell line panel, 48 h.
Regarding `CC1(O)CC(C(F)(F)F)(C(F)(F)F)OC1=O` (stereo not drawn), the TGI is more than 10 µM.
In the case of `CC1=C2C(=O)NN=C2CCN1c1ccc(Br)cc1`, the total growth inhibition concentration (TGI) was more than 100 µM.
`O=C(NNC(=S)Nc1ccc(Cl)cc1)c1cc(-c2ccccc2)nc2ccccc12` came in with a TGI of 9.22 µM.
On the same count and under the same terms, the same measure for `COC(=O)C(/C(=N/NC(N)=O)C(=O)Nc1ccc(C)cc1)c1nc2ccc([N+](=O)[O-])cc2[nH]c1=O` (stereo not drawn): more than 100 µM.

The next experiment deals with SF-539 CNS. As to the kind of experiment: DTP human tumour cell line panel, 48 h.
`CC1(O)CC(C(F)(F)F)(C(F)(F)F)OC1=O` (stereo not drawn) yielded a TGI of more than 10 µM.
In turn, `CC1=C2C(=O)NN=C2CCN1c1ccc(Br)cc1` returned a TGI of more than 100 µM.
`O=C(NNC(=S)Nc1ccc(Cl)cc1)c1cc(-c2ccccc2)nc2ccccc12` yielded a TGI of 11.6 µM.
Regarding `COC(=O)C(/C(=N/NC(N)=O)C(=O)Nc1ccc(C)cc1)c1nc2ccc([N+](=O)[O-])cc2[nH]c1=O` (stereo not drawn), the TGI was more than 100 µM.
